According to ChEMBL document CHEMBL4507266, “Data for DCP probe BAY-784” (2021):

Key:
[1] = molecular target: Insulin-like growth factor 1 receptor (Homo sapiens) (UniProt P08069); details: Compound concentration 1000.0 nM
[2] = molecular target: Serine/threonine-protein kinase WNK1 (Homo sapiens) (UniProt Q9H4A3); details: Compound concentration 1000.0 nM
[3] = molecular target: AP2-associated protein kinase 1 (Homo sapiens) (UniProt Q2M2I8); details: Compound concentration 1000.0 nM
[4] = molecular target: T1, Muscarinic acetylcholine receptor M2 (Homo sapiens) (UniProt P08172); details: Compound concentration 10.0 uM
T1 sequence (whole entry): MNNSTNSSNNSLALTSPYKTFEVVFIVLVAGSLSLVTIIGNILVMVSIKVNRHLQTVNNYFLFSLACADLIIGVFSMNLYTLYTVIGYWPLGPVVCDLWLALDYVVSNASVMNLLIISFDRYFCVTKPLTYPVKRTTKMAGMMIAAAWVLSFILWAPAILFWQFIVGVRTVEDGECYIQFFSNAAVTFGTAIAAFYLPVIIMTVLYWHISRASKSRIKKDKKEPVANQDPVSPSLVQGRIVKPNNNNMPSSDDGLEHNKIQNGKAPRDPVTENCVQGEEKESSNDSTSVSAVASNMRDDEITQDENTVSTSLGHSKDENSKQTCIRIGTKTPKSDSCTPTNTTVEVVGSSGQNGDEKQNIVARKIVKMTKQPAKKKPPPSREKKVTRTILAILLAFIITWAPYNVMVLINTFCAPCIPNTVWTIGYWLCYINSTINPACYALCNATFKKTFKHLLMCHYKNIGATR

[5] = molecular target: Cyclin-dependent kinase 4 (Homo sapiens) (UniProt P11802); details: Compound concentration 1000.0 nM
[6] = molecular target: G protein-coupled receptor kinase 4 (Homo sapiens) (UniProt P32298); details: Compound concentration 1000.0 nM
[7] = molecular target: Mitogen-activated protein kinase kinase kinase kinase 4 (Homo sapiens) (UniProt O95819); details: Compound concentration 1000.0 nM
[8] = molecular target: T2, D(4) dopamine receptor (Homo sapiens) (UniProt P21917); details: Compound concentration 10.0 uM
T2 sequence (whole entry): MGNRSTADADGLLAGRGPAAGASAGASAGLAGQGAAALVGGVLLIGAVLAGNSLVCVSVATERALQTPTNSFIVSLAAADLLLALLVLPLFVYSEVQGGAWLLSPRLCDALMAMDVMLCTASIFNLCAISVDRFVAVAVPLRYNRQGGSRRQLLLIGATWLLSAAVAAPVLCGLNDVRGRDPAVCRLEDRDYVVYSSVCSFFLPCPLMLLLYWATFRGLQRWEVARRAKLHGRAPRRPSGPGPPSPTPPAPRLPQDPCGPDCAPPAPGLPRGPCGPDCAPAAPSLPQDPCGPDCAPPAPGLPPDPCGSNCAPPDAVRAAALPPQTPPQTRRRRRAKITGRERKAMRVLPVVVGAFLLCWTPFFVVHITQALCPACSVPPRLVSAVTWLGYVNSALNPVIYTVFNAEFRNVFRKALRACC

[9] = molecular target: BDNF/NT-3 growth factors receptor (Homo sapiens) (UniProt Q16620); details: Compound concentration 1000.0 nM
[10] = system: Serine/threonine-protein kinase B-raf (Homo sapiens), P15056 [V600E]; details: Compound concentration 1000.0 nM
[11] = system: Hepatocyte growth factor receptor (Homo sapiens), P08581 [Y1235D]; details: Compound concentration 1000.0 nM
[12] = molecular target: Rho-associated protein kinase 1 (Homo sapiens) (UniProt Q13464); details: Compound concentration 1000.0 nM
[13] = molecular target: T3, Alpha-2C adrenergic receptor (Homo sapiens) (UniProt P18825); details: Compound concentration 10.0 uM
T3 sequence (whole entry): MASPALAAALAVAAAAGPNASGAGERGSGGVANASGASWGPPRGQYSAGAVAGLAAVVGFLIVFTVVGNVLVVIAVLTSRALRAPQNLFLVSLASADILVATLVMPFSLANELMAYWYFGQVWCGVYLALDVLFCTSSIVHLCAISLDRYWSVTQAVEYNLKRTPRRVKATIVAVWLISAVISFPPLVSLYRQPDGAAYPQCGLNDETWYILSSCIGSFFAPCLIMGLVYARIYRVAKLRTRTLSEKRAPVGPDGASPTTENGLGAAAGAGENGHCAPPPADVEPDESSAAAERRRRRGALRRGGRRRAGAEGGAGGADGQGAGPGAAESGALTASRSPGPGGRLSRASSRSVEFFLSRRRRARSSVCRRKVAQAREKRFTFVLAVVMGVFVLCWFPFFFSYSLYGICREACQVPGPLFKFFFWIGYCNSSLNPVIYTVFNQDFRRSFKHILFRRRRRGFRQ

[14] = molecular target: Leukocyte tyrosine kinase receptor (Homo sapiens) (UniProt P29376); details: Compound concentration 1000.0 nM
[15] = molecular target: Receptor-interacting serine/threonine-protein kinase 2 (Homo sapiens) (UniProt O43353); details: Compound concentration 1000.0 nM
[16] = molecular target: Phosphatidylinositol 4,5-bisphosphate 3-kinase catalytic subunit delta isoform (Homo sapiens) (UniProt O00329); details: Compound concentration 1000.0 nM
[17] = system: Phosphatidylinositol 4,5-bisphosphate 3-kinase catalytic subunit alpha isoform (Homo sapiens), P42336 [C420R]; details: Compound concentration 1000.0 nM
[18] = molecular target: Phosphatidylinositol 3-kinase C2 domain-containing subunit gamma (Homo sapiens) (UniProt O75747); details: Compound concentration 1000.0 nM
[19] = molecular target: 3-phosphoinositide-dependent protein kinase 1 (Homo sapiens) (UniProt O15530); details: Compound concentration 1000.0 nM
[20] = molecular target: Mitogen-activated protein kinase 12 (Homo sapiens) (UniProt P53778); details: Compound concentration 1000.0 nM
[21] = molecular target: Serine/threonine-protein kinase NIM1 (Homo sapiens) (UniProt Q8IY84); details: Compound concentration 1000.0 nM
[22] = molecular target: Cyclin-dependent kinase 2 (Homo sapiens) (UniProt P24941); details: Compound concentration 1000.0 nM
[23] = molecular target: Myotonin-protein kinase (Homo sapiens) (UniProt Q09013); details: Compound concentration 1000.0 nM
[24] = molecular target: Serine/threonine-protein kinase 25 (Homo sapiens) (UniProt O00506); details: Compound concentration 1000.0 nM
[25] = molecular target: D(3) dopamine receptor (Homo sapiens) (UniProt P35462); details: Compound concentration 10.0 uM
[26] = molecular target: 5-hydroxytryptamine receptor 1B (Homo sapiens) (UniProt P28222); details: Compound concentration 10.0 uM
[27] = molecular target: Mu-type opioid receptor (Homo sapiens) (UniProt P35372); details: Compound concentration 10.0 uM

Myotonin-protein kinase (Homo sapiens), sequence (Q09013 whole entry): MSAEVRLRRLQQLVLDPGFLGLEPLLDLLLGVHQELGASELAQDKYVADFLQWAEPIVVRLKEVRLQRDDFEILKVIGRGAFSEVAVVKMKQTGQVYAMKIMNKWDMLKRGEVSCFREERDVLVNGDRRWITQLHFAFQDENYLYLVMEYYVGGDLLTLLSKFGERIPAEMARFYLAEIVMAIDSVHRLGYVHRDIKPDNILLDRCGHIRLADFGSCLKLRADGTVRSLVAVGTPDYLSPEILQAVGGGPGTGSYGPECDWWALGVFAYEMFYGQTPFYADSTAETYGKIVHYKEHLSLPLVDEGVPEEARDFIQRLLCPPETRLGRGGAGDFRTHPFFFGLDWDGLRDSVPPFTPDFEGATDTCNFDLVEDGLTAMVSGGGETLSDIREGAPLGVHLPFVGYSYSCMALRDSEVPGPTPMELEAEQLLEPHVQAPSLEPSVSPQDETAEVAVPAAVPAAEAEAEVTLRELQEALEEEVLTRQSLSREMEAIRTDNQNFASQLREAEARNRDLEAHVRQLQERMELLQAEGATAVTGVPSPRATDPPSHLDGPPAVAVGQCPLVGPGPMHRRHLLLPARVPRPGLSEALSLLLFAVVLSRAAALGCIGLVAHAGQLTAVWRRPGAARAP
Phosphatidylinositol 4,5-bisphosphate 3-kinase catalytic subunit alpha isoform (Homo sapiens), P42336 [C420R], sequence (P42336 whole entry C420R, the tested form may be a part, canonical isoform): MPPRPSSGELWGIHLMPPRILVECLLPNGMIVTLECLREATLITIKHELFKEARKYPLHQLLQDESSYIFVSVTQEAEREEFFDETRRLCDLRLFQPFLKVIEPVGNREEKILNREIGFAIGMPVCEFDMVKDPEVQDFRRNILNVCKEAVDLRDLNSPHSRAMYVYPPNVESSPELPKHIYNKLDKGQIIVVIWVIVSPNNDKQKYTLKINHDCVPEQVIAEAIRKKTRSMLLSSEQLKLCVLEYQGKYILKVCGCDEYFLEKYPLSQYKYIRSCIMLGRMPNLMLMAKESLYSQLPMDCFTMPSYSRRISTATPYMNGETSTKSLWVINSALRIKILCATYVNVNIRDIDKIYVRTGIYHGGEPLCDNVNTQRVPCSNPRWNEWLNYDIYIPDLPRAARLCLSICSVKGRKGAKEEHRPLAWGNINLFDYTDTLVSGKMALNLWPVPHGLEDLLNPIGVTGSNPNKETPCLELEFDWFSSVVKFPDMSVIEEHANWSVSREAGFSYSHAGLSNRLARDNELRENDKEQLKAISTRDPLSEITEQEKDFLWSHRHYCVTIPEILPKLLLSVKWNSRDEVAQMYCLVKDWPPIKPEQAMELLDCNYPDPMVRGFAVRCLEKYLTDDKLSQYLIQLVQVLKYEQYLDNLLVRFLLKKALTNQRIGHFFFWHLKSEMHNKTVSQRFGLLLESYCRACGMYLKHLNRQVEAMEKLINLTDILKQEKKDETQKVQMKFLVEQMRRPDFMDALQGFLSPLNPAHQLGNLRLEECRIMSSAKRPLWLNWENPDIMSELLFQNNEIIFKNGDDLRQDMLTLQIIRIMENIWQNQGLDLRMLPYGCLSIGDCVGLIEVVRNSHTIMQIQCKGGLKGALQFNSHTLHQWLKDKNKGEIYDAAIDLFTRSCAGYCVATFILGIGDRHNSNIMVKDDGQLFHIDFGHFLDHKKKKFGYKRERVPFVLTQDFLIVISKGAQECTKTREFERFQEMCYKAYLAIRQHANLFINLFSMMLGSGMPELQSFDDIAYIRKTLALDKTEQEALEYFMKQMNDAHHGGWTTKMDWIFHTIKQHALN
Serine/threonine-protein kinase NIM1 (Homo sapiens), sequence (Q8IY84 whole entry): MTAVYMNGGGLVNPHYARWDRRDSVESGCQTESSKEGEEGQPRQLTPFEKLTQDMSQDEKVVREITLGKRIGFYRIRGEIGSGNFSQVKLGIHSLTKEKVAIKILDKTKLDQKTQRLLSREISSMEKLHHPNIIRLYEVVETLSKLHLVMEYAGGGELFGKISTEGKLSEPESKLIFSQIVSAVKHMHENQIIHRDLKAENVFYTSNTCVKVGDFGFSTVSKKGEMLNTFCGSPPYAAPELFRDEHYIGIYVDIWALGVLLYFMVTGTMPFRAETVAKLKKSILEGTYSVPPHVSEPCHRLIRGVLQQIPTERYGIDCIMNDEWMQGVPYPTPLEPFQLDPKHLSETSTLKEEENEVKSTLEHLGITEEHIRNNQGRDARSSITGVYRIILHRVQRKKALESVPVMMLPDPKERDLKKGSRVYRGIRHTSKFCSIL
Mitogen-activated protein kinase kinase kinase kinase 4 (Homo sapiens), sequence (O95819 2-1239 limits assumed): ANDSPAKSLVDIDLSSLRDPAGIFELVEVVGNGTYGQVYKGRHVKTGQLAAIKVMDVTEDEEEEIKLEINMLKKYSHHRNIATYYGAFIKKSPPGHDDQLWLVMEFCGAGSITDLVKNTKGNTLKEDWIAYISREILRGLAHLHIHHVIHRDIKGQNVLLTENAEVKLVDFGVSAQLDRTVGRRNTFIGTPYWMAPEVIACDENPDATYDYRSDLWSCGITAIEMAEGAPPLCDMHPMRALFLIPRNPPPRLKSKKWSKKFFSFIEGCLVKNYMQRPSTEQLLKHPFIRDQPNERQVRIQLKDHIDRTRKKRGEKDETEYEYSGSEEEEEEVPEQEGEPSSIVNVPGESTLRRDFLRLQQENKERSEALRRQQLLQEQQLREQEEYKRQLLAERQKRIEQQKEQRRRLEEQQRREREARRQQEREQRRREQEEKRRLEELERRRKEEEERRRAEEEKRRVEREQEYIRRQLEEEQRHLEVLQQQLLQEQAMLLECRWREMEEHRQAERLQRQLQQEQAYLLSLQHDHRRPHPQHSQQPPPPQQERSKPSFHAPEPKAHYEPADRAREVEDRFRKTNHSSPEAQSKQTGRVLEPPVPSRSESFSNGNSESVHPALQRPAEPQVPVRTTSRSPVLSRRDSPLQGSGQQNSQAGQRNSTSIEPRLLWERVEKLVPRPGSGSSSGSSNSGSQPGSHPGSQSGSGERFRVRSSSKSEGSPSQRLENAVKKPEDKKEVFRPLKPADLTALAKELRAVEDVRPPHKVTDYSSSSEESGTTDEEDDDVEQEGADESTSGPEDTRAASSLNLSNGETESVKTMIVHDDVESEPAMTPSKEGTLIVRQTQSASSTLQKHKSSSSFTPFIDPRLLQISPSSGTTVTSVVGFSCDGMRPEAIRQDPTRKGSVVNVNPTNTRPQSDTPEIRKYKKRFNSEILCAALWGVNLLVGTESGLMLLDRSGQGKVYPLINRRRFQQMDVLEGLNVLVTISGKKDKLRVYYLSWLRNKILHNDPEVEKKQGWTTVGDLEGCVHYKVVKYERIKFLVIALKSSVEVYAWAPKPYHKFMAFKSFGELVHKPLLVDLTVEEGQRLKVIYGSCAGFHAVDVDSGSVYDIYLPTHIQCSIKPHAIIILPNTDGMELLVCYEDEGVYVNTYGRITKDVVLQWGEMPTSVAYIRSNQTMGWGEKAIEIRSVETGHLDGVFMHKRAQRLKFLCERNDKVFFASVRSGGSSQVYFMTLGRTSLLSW
Cyclin-dependent kinase 4 (Homo sapiens), sequence (P11802 whole entry): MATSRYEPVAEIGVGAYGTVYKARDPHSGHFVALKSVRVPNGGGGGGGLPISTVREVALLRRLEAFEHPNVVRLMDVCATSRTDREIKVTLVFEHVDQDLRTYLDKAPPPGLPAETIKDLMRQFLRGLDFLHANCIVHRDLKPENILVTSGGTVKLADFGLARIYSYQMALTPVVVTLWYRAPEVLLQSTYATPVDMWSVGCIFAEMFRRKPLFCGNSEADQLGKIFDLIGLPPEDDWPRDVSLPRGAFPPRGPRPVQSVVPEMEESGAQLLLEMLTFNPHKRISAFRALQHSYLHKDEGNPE
Phosphatidylinositol 4,5-bisphosphate 3-kinase catalytic subunit delta isoform (Homo sapiens), sequence (O00329 whole entry, canonical isoform): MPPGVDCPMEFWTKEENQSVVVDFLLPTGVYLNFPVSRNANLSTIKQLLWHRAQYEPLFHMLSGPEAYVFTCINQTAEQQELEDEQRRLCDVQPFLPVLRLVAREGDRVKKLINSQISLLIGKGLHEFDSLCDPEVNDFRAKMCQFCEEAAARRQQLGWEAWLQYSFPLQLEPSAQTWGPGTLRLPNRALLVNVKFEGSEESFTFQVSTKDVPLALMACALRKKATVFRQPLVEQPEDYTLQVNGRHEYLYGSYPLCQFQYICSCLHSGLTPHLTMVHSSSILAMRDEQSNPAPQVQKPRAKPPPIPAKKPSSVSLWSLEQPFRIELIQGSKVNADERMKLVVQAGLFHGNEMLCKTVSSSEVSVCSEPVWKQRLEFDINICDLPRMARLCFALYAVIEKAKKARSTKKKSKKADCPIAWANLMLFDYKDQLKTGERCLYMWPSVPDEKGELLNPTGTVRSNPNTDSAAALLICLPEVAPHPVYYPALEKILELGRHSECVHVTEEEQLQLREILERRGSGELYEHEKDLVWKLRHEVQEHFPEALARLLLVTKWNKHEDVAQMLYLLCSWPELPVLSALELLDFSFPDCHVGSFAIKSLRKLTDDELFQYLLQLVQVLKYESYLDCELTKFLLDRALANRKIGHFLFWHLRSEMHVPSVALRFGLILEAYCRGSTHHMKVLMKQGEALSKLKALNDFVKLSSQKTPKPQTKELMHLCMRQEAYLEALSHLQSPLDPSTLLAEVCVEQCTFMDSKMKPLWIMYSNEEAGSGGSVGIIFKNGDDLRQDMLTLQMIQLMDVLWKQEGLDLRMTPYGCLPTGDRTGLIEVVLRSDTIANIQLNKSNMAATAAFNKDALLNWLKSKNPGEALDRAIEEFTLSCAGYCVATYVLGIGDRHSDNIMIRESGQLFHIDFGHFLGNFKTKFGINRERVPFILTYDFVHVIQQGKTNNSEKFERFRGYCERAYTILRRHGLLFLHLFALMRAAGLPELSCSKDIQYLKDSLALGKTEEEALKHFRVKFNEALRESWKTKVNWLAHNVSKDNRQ

O=C(NCc1ncc(C(F)(F)F)cc1Cl)c1ccc2c(c1)C1(CCS(=O)(=O)CC1)[C@H](C1CC1)N2S(=O)(=O)c1ccc(F)cc1 [BAY-784]
inactive: residual activity [1] 100% | residual activity [2] 90% | residual activity [3] 99% | inhibition [4] 8.38% | residual activity [5] 93% | residual activity [6] 100% | residual activity [7] 91% | inhibition [8] 1.57% | residual activity [9] 60% | residual activity [10] 84% | residual activity [11] 100% | residual activity [12] 94% | inhibition [13] 12.8% | residual activity [14] 87% | residual activity [15] 100% | residual activity [16] 67% | residual activity [17] 77% | residual activity [18] 75% | residual activity [19] 91% | residual activity [20] 100% | residual activity [21] 83% | residual activity [22] 85% | residual activity [23] 93% | residual activity [24] 100% | inhibition [25] 9.45% | inhibition [26] -6.19% | inhibition [27] 29.1%

O=C(NCc1ncc(C(F)(F)F)cc1Cl)c1ccc2c(c1)C1(CCS(=O)(=O)CC1)[C@@H](C1CC1)N2S(=O)(=O)c1ccc(F)cc1 [BAY-786]
inactive: residual activity [1] 88% | residual activity [2] 79% | residual activity [3] 100% | inhibition [4] 12.5% | residual activity [5] 80% | residual activity [6] 100% | residual activity [7] 100% | inhibition [8] -5.22% | residual activity [9] 71% | residual activity [10] 90% | residual activity [11] 100% | residual activity [12] 82% | inhibition [13] 15.7% | residual activity [14] 81% | residual activity [15] 100% | residual activity [16] 67% | residual activity [17] 77% | residual activity [18] 75% | residual activity [19] 92% | residual activity [20] 94% | residual activity [21] 78% | residual activity [22] 100% | residual activity [23] 86% | residual activity [24] 99% | inhibition [25] 3.82% | inhibition [26] -2.74% | inhibition [27] 13.1%
